System: DU-145 multicell spheroids with HUVEC/MSC, viability
Assay: Anticancer human tumor DU-145 cell line growth inhibition [IpAb];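 note: spheroids exposed to agents for seven days before measurement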;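 for viability, T/C: percent of DMSO vehicle control viability so 100% = untreated level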
Details: for IC50: curve of first compound; for viability, T/C: stronger effect = lower value
Outline: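 Spheroids of 60% malignant cells, 25% HUVEC and 15% MSC were exposed to targeted agents combined with ipatasertib or abemaciclib. Doses started at or near clinical Cmax (10 microM when unknown) and fell in half-log steps.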

[1] = second compound 0.1 µM, first compound 0.0316 µM
[2] = second compound 0.1 µM, first compound 0.1 µM
[3] = second compound 0.316 µM, first compound 0.0316 µM
[4] = second compound 0.316 µM, first compound 0.1 µM
[5] = second compound 1 µM, first compound 0.0316 µM
[6] = second compound 1 µM, first compound 0.1 µM
[7] = second compound 3.16 µM, first compound 0.0316 µM
[8] = second compound 3.16 µM, first compound 0.1 µM
[9] = second compound 10 µM, first compound 0.0316 µM
[10] = second compound 10 µM, first compound 0.1 µM

For `Cn1ncc(Cl)c1-c1cc(C(=O)NC(CN)Cc2cccc(F)c2)sc1Cl` (stereo not given) + CC(C)NCC(C(=O)N1CCN(c2ncnc3c2C(C)CC3O)CC1)c1ccc(Cl)cc1, the IC50 (second compound 0.1 µM) was 142 nM, the IC50 (second compound 0.316 µM) was less than 31.6 nM and the IC50 (second compound 1 µM) was less than 31.6 nM. The IC50 (second compound 3.16 µM) was less than 31.6 nM, the IC50 (second compound 10 µM) was less than 31.6 nM and the viability, T/C [1] was 72.8%. The viability, T/C [2] was 56.3%, the viability, T/C (second compound 0.1 µM, first compound 0.316 µM) was 35.3% and the viability, T/C (second compound 0.1 µM, first compound 1 µM) was 24.7%. It also gave a viability, T/C (second compound 0.1 µM, first compound 3.16 µM) of 17%, a viability, T/C (second compound 0.1 µM, first compound 10 µM) of 0.42% and a viability, T/C [3] of 46.1%. For the same compound, the viability, T/C [4] was 41.2%, the viability, T/C (second compound 0.316 µM, first compound 0.316 µM) was 33.6% and the viability, T/C (second compound 0.316 µM, first compound 1 µM) was 24%. The viability, T/C (second compound 0.316 µM, first compound 3.16 µM) was 16.4%, the viability, T/C (second compound 0.316 µM, first compound 10 µM) was 1.33% and the viability, T/C [5] was 30%. It also gave a viability, T/C [6] of 32.6%, a viability, T/C (second compound 1 µM, first compound 0.316 µM) of 28% and a viability, T/C (second compound 1 µM, first compound 1 µM) of 24.2%. For the same compound, the viability, T/C (second compound 1 µM, first compound 3.16 µM) was 15.8%, the viability, T/C (second compound 1 µM, first compound 10 µM) was 0.93% and the viability, T/C [7] was 22%. For the same compound, the viability, T/C [8] was 24.4%, the viability, T/C (second compound 3.16 µM, first compound 0.316 µM) was 21.7% and the viability, T/C (second compound 3.16 µM, first compound 1 µM) was 19.6%. The viability, T/C (second compound 3.16 µM, first compound 3.16 µM) was 18.7%, the viability, T/C (second compound 3.16 µM, first compound 10 µM) was 0.86% and the viability, T/C [9] was 19.4%. For the same compound, the viability, T/C [10] was 19.7%, the viability, T/C (second compound 10 µM, first compound 0.316 µM) was 19.7% and the viability, T/C (second compound 10 µM, first compound 1 µM) was 18.5%. For the same compound, the viability, T/C (second compound 10 µM, first compound 3.16 µM) was 15.8% and the viability, T/C (second compound 10 µM, first compound 10 µM) was 0.27%.

`Cn1ncnc1[C@H]1c2n[nH]c(=O)c3cc(F)cc(c23)N[C@@H]1c1ccc(F)cc1` + CC(C)NCC(C(=O)N1CCN(c2ncnc3c2C(C)CC3O)CC1)c1ccc(Cl)cc1 gave an IC50 (second compound 0.1 µM) greater than 100 nM, an IC50 (second compound 0.316 µM) of 46.1 nM and an IC50 (second compound 1 µM) of less than 0.316 nM. It also gave an IC50 (second compound 3.16 µM) of less than 0.316 nM, an IC50 (second compound 10 µM) of less than 0.316 nM and a viability, T/C (second compound 0.1 µM, first compound 0.000316 µM) of 85.8%. The viability, T/C (second compound 0.1 µM, first compound 0.001 µM) was 81.1%, the viability, T/C (second compound 0.1 µM, first compound 0.00316 µM) was 83.2% and the viability, T/C (second compound 0.1 µM, first compound 0.01 µM) was 82.1%. The viability, T/C [1] was 77.9%, the viability, T/C [2] was 73.4% and the viability, T/C (second compound 0.316 µM, first compound 0.000316 µM) was 56%. For the same compound, the viability, T/C (second compound 0.316 µM, first compound 0.001 µM) was 57.8%, the viability, T/C (second compound 0.316 µM, first compound 0.00316 µM) was 51.9% and the viability, T/C (second compound 0.316 µM, first compound 0.01 µM) was 53.8%. It also gave a viability, T/C [3] of 51.8%, a viability, T/C [4] of 47.1% and a viability, T/C (second compound 1 µM, first compound 0.000316 µM) of 34.4%. It also gave a viability, T/C (second compound 1 µM, first compound 0.001 µM) of 36.3%, a viability, T/C (second compound 1 µM, first compound 0.00316 µM) of 33.5% and a viability, T/C (second compound 1 µM, first compound 0.01 µM) of 33%. For the same compound, the viability, T/C [5] was 34.3%, the viability, T/C [6] was 33.6% and the viability, T/C (second compound 3.16 µM, first compound 0.000316 µM) was 24%. The viability, T/C (second compound 3.16 µM, first compound 0.001 µM) was 24.8%, the viability, T/C (second compound 3.16 µM, first compound 0.00316 µM) was 23.9% and the viability, T/C (second compound 3.16 µM, first compound 0.01 µM) was 21.9%. For the same compound, the viability, T/C [7] was 24.5%, the viability, T/C [8] was 23.3% and the viability, T/C (second compound 10 µM, first compound 0.000316 µM) was 17.7%. The viability, T/C (second compound 10 µM, first compound 0.001 µM) was 20.1%, the viability, T/C (second compound 10 µM, first compound 0.00316 µM) was 19.6% and the viability, T/C (second compound 10 µM, first compound 0.01 µM) was 19.1%. It also gave a viability, T/C [9] of 18.1% and a viability, T/C [10] of 19.5%.
